What was measured:
[1] = target: T1, A-II-receptor (membrane fraction of bovine adrenal cortex) (Bos taurus, UniProt P25104); experiment: Inhibition of binding of angiotensin-II to angiotensin receptor (radio receptor assay, 125I-A-II); details: room temperature, one hour; for inhibition at 1 µM: 10^-6 M; for inhibition at 0.1 µM: 10^-7 M
T1 construct: prepared from the membrane fraction of bovine adrenal cortex; from tissue; host or cells: bovine adrenal cortex, membrane fraction
T1 sequence (P25104 1-359): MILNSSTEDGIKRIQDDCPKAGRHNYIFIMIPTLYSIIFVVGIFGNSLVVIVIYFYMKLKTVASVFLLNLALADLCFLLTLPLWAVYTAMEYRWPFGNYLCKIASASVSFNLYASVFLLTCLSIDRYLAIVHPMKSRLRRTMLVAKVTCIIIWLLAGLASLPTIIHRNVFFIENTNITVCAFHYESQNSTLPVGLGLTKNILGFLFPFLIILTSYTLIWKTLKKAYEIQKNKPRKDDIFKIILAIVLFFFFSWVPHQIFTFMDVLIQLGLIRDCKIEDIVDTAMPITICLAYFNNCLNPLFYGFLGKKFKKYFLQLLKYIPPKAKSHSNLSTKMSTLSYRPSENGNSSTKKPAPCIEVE
Experimental: An experiment of inhibition on the binding of angiotensin-II (A-II) to A-II-receptor was conducted by modifying the method of Douglas et al. [Endocrinology, 102, 685-696 (1978)]. An A-II-receptor was prepared from the membrane fraction of bovine adrenal cortex.
The compound of the present invention (10^-9 M to 3×10^-5 M) and ^125 I-A-II (1.85 kBq/50 μl) were added to the receptor membrane fraction, and the mixture was incubated at room temperature for one hour. The receptor-bound and free ^125 I-A-II were separated through a filter (Whatman GF/B filter), and the radioactivity of ^125 I-A-II bound to the receptor was measured.

[2] = system: A-II-induced pressor action; experiment: Inhibitory effect on pressor action of A-II (100 ng/kg i.v.) after oral administration; format: in vivo, Jcl: SD rats (9 week old, male); details: Rattus norvegicus, 30 mg/kg p.o., SD rats, read-out: Pressor Response (30 mg/Kg, p.o.) (% Inhibition)
Experimental: Jcl: SD rats (9 week old, male) were used. On the day previous to the experiment, these animals were applied with cannulation into the femoral artery and vein under anesthesia with pentobarbital Na. The animals were fasted but allowed free access to drinking water until the experiment was started. Just on the day of conducting the experiment, the artery cannula was connected with a blood-pressure transducer, and the average blood pressure was recorded by means of polygraph. Before administration of the drug, the pressor action due to intravenous administration of A-II (100 ng/kg) as the control was measured. The drugs were orally administered, and then, at each point of the measurement, A-II was administered intravenously, and the pressor action was similarly measured. By comparing the pressor action before and after administration of the drug, the precent inhibition by the drug on A-II-induced pressor action was evaluated.

SMILES | inhibition at 1 µM [1] | inhibition at 0.1 µM [1] | inhibition in vivo at 30 mg/kg [2]
CCCCc1cc(=O)c(C(=O)OCC)cn1Cc1ccc(-c2ccccc2C(=O)O)cc1 [Working Example 1, Ethyl 6-n-butyl-1-[(2'-carboxybiphenyl-4-yl)methyl]-4-oxo-1,4-dihydronicotinate] | 67% | 24% | –
CCCCc1cc(=O)c(C(=O)OCC)cn1Cc1ccc(-c2ccccc2-c2nnn[nH]2)cc1 [Working Example 2, Ethyl 6-n-butyl-4-oxo-1-[[2'-(1H-tetrazol-5-yl)biphenyl-4-yl]methyl]-1,4-dihydronicotinate] | 67% | 25% | –
CCCCCc1cc(=O)c(C(=O)OCC)cn1Cc1ccc(-c2ccccc2-c2nn[nH]n2)cc1 [Working Example 3] | 71% | 28% | –
CCCc1cc(=O)c(C(=O)OCC)cn1Cc1ccc(-c2ccccc2-c2nn[nH]n2)cc1 [Working Example 4] | 72% | 31% | –
CCCCc1nc(COC)cc(=O)n1Cc1ccc(-c2ccccc2-c2nnn[nH]2)cc1 [Working Example 8, 2-n-Butyl-3-[[2'-(1H-tetrazol-5-yl)biphenyl-4-yl]methyl]-6-methoxymethyl-4(3H)-pyrimidone] | 73% | 29% | –
CCCCc1ncc(C(=O)OCC)c(=O)n1Cc1ccc(-c2ccccc2-c2nnn[nH]2)cc1 [Working Example 10, Ethyl 2-n-butyl-4-oxo-3-[[2'-(1H-tetrazol-5-yl)biphenyl-4-yl]methyl]-3,4-dihydropyrimidine-5-carboxylate] | 75% | 32% | –
CCCCc1nc(=O)c(C(=O)OCC)cn1Cc1ccc(-c2ccccc2-c2nnn[nH]2)cc1 [Working Example 11, Ethyl 2-n-butyl-4-oxo-1-[[2'-(1H-tetrazol-5-yl)biphenyl-4-yl]methyl]-1,4-dihydropyrimidine-5-carboxylate] | 70% | 29% | –
CCCCc1ncc([N+](=O)[O-])c(=O)n1Cc1ccc(-c2ccccc2-c2nn[nH]n2)cc1 [Working Example 13, 2-n-Butyl-5-nitro-3-[[2'-(1H-tetrazol-5-yl)biphenyl-4-yl-]methyl]-4(3H)-pyrimidone] | 73% | 30% | –
CCCCc1nc(CC(=O)OC)cc(=O)n1Cc1ccc(-c2ccccc2-c2nnn[nH]2)cc1 [Working Example 16, 2-n-Butyl-6-methoxycarbonylmethyl-3-[[2'-(1H-tetrazol-5-yl)biphenyl-4-yl]methyl]-4(3H)-pyrimidone] | 68% | 31% | –
CCCCc1nc2ccccc2c(=O)n1Cc1ccc(-c2ccccc2-c2nnn[nH]2)cc1 [Working Example 23, 2-n-Butyl-3-[[2'-(1H-tetrazol-5-yl)biphenyl-4-yl]methyl]-4(3H)-quinazolinon] | 85% | 46% | ≥ 70%
CCCCc1nc2cc([N+](=O)[O-])ccc2c(=O)n1Cc1ccc(-c2ccccc2-c2nn[nH]n2)cc1 [Working Example 24] | 41% | 3% | –
CCCCc1nc2cc(Cl)ccc2c(=O)n1Cc1ccc(-c2ccccc2-c2nn[nH]n2)cc1 [Working Example 25] | 58% | 18% | –
CCCCc1nc2cccc(C)c2c(=O)n1Cc1ccc(-c2ccccc2-c2nn[nH]n2)cc1 [Working Example 26] | 74% | 36% | ≥ 70%
CCCCC(=O)Oc1ccc2nc(CCCC)n(Cc3ccc(-c4ccccc4-c4nn[nH]n4)cc3)c(=O)c2c1 [Working Example 29] | 92% | 66% | ≥ 70%
CCCCc1nc2cccc(COC(C)=O)c2c(=O)n1Cc1ccc(-c2ccccc2-c2nn[nH]n2)cc1 [Working Example 32] | 93% | 72% | ≥ 70%
CCCCc1nc2ccc(OC)cc2c(=O)n1Cc1ccc(-c2ccccc2-c2nn[nH]n2)cc1 [Working Example 37] | 97% | 77% | ≥ 70%
CCCCc1nc2ccc(OCC(=O)OC)cc2c(=O)n1Cc1ccc(-c2ccccc2-c2nn[nH]n2)cc1 [Working Example 38] | 89% | 59% | ≥ 70%
CCCCc1nc2ccc(OCCOC(C)=O)cc2c(=O)n1Cc1ccc(-c2ccccc2-c2nn[nH]n2)cc1 [Working Example 39] | 92% | 69% | ≥ 70%
CCCc1nc2ccc(OCCOC(=O)c3ccccc3)cc2c(=O)n1Cc1ccc(-c2ccccc2-c2nn[nH]n2)cc1 [Working Example 41] | 83% | 48% | ≥ 70%
CCCc1nc2ccc(OCC(=O)N3CCOCC3)cc2c(=O)n1Cc1ccc(-c2ccccc2-c2nn[nH]n2)cc1 [Working Example 48] | 95% | 81% | –
CCCc1nc2ccc(OCC(=O)NCc3ccccc3)cc2c(=O)n1Cc1ccc(-c2ccccc2-c2nn[nH]n2)cc1 [Working Example 49] | 88% | 63% | –
CCCCc1nc2cccc(COC)c2c(=O)n1Cc1ccc(-c2ccccc2-c2nn[nH]n2)cc1 [Working Example 50] | 95% | 73% | –
CCCc1nc2ccc(OCCO)cc2c(=O)n1Cc1ccc(-c2ccccc2-c2nnn[nH]2)cc1 [Working Example 53, 6-(2-Hydroxyethyloxy)-2-propyl-3-[[2'-(1H-tetrazol-5-yl)biphenyl-4-yl]methyl]-4(3H)-quinazolinone] | 92% | 76% | ≥ 70%
CCCCc1nc2cccc(CO)c2c(=O)n1Cc1ccc(-c2ccccc2-c2nnn[nH]2)cc1 [Working Example 54, 2-Butyl-5-hydroxymethyl-3-[[2'-(1H-tetrazol-5-yl)biphenyl-4-yl]methyl]-4(3H)-quinazolinone] | 88% | 74% | ≥ 70%
CCCCc1nc2ccc(OCCO)cc2c(=O)n1Cc1ccc(-c2ccccc2-c2nnn[nH]2)cc1 [Working Example 55, 2-Butyl-6-(2-hydroxyethyloxy)-3-[[2'-(1H-tetrazol-5-yl)biphenyl-4-yl]-methyl]-4(3H)-quinazolinone] | 94% | 75% | ≥ 70%

Reference: patent US5304565A, “Nitrogen containing heterocyclic compounds, their production and use” (Takeda Chemical Industries, Ltd., priority 1990, dated 1994)
